Results from the supplement of paper PMC10307832.

How the values were obtained:
Experiment in all cases: relative viability (nuclei count vs DMSO), 5 days (fraction); higher = more cells survive
NCI-H2085 = tested on: NCI-H2085
Outline: (§1)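 After 5 days of treatment, lung cancer cells in 1536-well plates were fixed and stained in a single step (final 0.05% Triton X-100, 1% formaldehyde, 1 ug/ml Hoechst) and their nuclei counted on 4× images. Treatment had been applied by pin tool the day after seeding as one drug alone or as a fixed anchor-drug dose with five library-drug doses (not always all listed) in √10 steps. Relative viability is the nuclei count of treated wells divided by that of vehicle wells, and values are medians of duplicate plates.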

NCI-H1993 = tested on: NCI-H1993
Outline: as §1

NCI-H2342 = tested on: NCI-H2342
Outline: as §1

NCI-H1563 = tested on: NCI-H1563
Outline: as §1

NCI-H2347 = tested on: NCI-H2347
Outline: as §1

EPLC-272H = tested on: EPLC-272H
Outline: as §1

NCI-H1650 = tested on: NCI-H1650
Outline: as §1

NCI-H1915 = tested on: NCI-H1915
Outline: as §1

LCLC-97TM1 = tested on: LCLC-97TM1
Outline: as §1

NCI-H647 = tested on: NCI-H647
Outline: as §1

NCI-H661 = tested on: NCI-H661
Outline: as §1

HOP-62 = tested on: HOP-62
Outline: as §1

## CC1(C)CCC(c2ccc(Cl)cc2)=C(CN2CCN(c3ccc(C(=O)NS(=O)(=O)c4ccc(N[C@H](CCN5CCOCC5)CSc5ccccc5)c(S(=O)(=O)C(F)(F)F)c4)cc3)CC2)C1 [Navitoclax] + COc1cccc2cc(-c3nc([C@H]4CC[C@H](C(=O)O)CC4)n4ncnc(N)c34)[nH]c12 [OSI-027] (partner 0.5 µM)
NCI-H2085; first compound 0.05 µM
  relative viability: 0.544
NCI-H2085; first compound 0.1581 µM
  relative viability: 0.846
NCI-H2085; first compound 0.5 µM
  relative viability: 0.757
NCI-H1993; first compound 0.005 µM
  relative viability: 0.566
NCI-H1993; first compound 0.01581 µM
  relative viability: 0.523
NCI-H1993; first compound 0.05 µM
  relative viability: 0.551
NCI-H1993; first compound 0.1581 µM
  relative viability: 0.523
NCI-H1993; first compound 0.5 µM
  relative viability: 0.607
NCI-H2342; first compound 0.005 µM
  relative viability: 0.579
NCI-H2342; first compound 0.01581 µM
  relative viability: 0.632
NCI-H2342; first compound 0.05 µM
  relative viability: 0.628
NCI-H2342; first compound 0.1581 µM
  relative viability: 0.603
NCI-H2342; first compound 0.5 µM
  relative viability: 0.525
NCI-H1563; first compound 0.005 µM
  relative viability: 0.737
NCI-H1563; first compound 0.01581 µM
  relative viability: 0.809
NCI-H1563; first compound 0.05 µM
  relative viability: 0.756
NCI-H1563; first compound 0.1581 µM
  relative viability: 0.824
NCI-H1563; first compound 0.5 µM
  relative viability: 0.812
NCI-H2347; first compound 0.005 µM
  relative viability: 0.485
NCI-H2347; first compound 0.01581 µM
  relative viability: 0.451
NCI-H2347; first compound 0.1581 µM
  relative viability: 0.293
NCI-H2347; first compound 0.5 µM
  relative viability: 0.401
EPLC-272H; first compound 0.005 µM
  relative viability: 0.296
EPLC-272H; first compound 0.05 µM
  relative viability: 0.323
EPLC-272H; first compound 0.1581 µM
  relative viability: 0.317
EPLC-272H; first compound 0.5 µM
  relative viability: 0.3
NCI-H1650; first compound 0.005 µM
  relative viability: 0.601
NCI-H1650; first compound 0.01581 µM
  relative viability: 1
NCI-H1650; first compound 0.05 µM
  relative viability: 0.698
NCI-H1650; first compound 0.1581 µM
  relative viability: 0.526
NCI-H1650; first compound 0.5 µM
  relative viability: 0.445
NCI-H1915; first compound 0.005 µM
  relative viability: 0.595
NCI-H1915; first compound 0.01581 µM
  relative viability: 0.636
NCI-H1915; first compound 0.05 µM
  relative viability: 0.627
NCI-H1915; first compound 0.1581 µM
  relative viability: 0.521
NCI-H1915; first compound 0.5 µM
  relative viability: 0.629
LCLC-97TM1; first compound 0.005 µM
  relative viability: 0.608
LCLC-97TM1; first compound 0.01581 µM
  relative viability: 0.484
LCLC-97TM1; first compound 0.05 µM
  relative viability: 0.569
LCLC-97TM1; first compound 0.1581 µM
  relative viability: 0.482
LCLC-97TM1; first compound 0.5 µM
  relative viability: 0.601
NCI-H647; first compound 0.005 µM
  relative viability: 0.674
NCI-H647; first compound 0.01581 µM
  relative viability: 0.738
NCI-H647; first compound 0.05 µM
  relative viability: 0.891
NCI-H647; first compound 0.1581 µM
  relative viability: 0.611
NCI-H647; first compound 0.5 µM
  relative viability: 0.597
NCI-H661; first compound 0.005 µM
  relative viability: 0.734
NCI-H661; first compound 0.01581 µM
  relative viability: 0.775
NCI-H661; first compound 0.05 µM
  relative viability: 0.793
NCI-H661; first compound 0.1581 µM
  relative viability: 0.687
NCI-H661; first compound 0.5 µM
  relative viability: 0.716
HOP-62; first compound 0.005 µM
  relative viability: 0.734
HOP-62; first compound 0.01581 µM
  relative viability: 0.971
HOP-62; first compound 0.05 µM
  relative viability: 0.863
HOP-62; first compound 0.1581 µM
  relative viability: 0.648
HOP-62; first compound 0.5 µM
  relative viability: 0.894
